Source: patent US10730923B2 (Indiana University Research and Technology Corporation, priority 2011, dated 2020)
*1 amine or outer side, *2 acyl side, *3 side chain or, on linkers, in order; H or OH if unused. Where a SMILES comes first, the peptide text is derived from it. Where no end group is shown, it is not given here. Side-chain parts run from the residue outwards. [ ]: non-standard residue; d: D form. The star is where a group is joined. γGlu = O=C(O)[C@H](CCC(=O)[*:2])N[*:1]; Palmitoyl = CCCCCCCCCCCCCCCC(=O)*; Aib = CC(C)(N)C(=O)O

How the values were obtained:
Type in all cases: in vivo
[1] = diet-induced obese (DIO) mice, daily dosing for nine days: body weight and ambient glucose
Experimental: Mice were administered a vehicle control or a dose of a peptide daily for nine days. The peptides tested in this study included a peptide of SEQ ID NO: 12, a peptide of SEQ ID NO: 17, a peptide of SEQ ID NO: 18, and a peptide of SEQ ID NO: 19. Doses of each peptide were varied—each of the peptides of SEQ ID NO: 12, 17, and 19 was administered at a dose of either 3 nmol/kg or 9 nmol/kg, while the peptide of SEQ ID NO: 18 was administered at a dose of 1 nmol/kg, 3 nmol/kg, or 9 nmol/kg. Data are expressed as mean±SEM.
In addition to cumulative body weight change, ambient glucose levels of the DIO mice were measured.

[2] = obese rhesus monkeys, daily dosing for 21 days: body weight and food intake
Experimental: The in vivo effects of a peptide of the invention were confirmed in obese rhesus monkeys by administering daily for 21 days a vehicle control, a commercially available product (Liraglutide), a peptide of SEQ ID NO: 20, or a peptide of SEQ ID NO: 17. […] Body weight and food intake were measured.

[3] = diabetic rhesus monkeys, 10 days treatment: body weight, fasting blood glucose, Meal Tolerance Test; settings: 1 μg/kg s.c. for 10 days
Experimental: The in vivo effects of a peptide of the invention were tested in diabetic rhesus monkeys (n=7) that were aged 16-26 years and having an average body weight of […]. Diabetic rhesus monkeys (n=7) that were aged 16-26 years with an average body weight of […] were administered a vehicle control, Liraglutide at a dose of 10 μg/kg s.c. or a peptide of SEQ ID NO: 17 at a dose of 1 μg/kg s.c. for 10 days. At the end of each treatment, fasting blood glucose (FBG) was measured first followed by a Meal Tolerance Test (MTT) to assess glucose tolerance. […] Data are expressed in FIG. 4 as mean±SEM. *P<0.05 versus vehicle.

| Compound | decrease in ambient glucose vs. vehicle ([1]; 3 nmol/kg or 9 nmol/kg dose, by Day 4) [%] | reduction in glucose levels compared to vehicle control mice ([1]; 3 nmol/kg, Day 7) [%] | decrease in glucose levels compared to vehicle control mice ([1]; 3 nmol/kg, Day 9) [%] | decrease in glucose levels compared to vehicle control mice ([1]; 9 nmol/kg, Day 4) [%] | decrease in glucose levels compared to vehicle control mice ([1]; 9 nmol/kg, Day 7) [%] | decrease in glucose levels compared to vehicle control mice ([1]; 9 nmol/kg, Day 9) [%] | body weight following a one week wash-out ([2]; Day 28) | food intake, % change vs. baseline ([2]; daily s.c. for 21 days, Liraglutide 20 μg/kg, SEQ ID NO: 17 3 μg/kg) | glucose tolerance during Meal Tolerance Test (MTT) compared to vehicle [3] |
| --- | --- | --- | --- | --- | --- | --- | --- | --- | --- |
| SEQ ID NO: 18: peptide of SEQ ID NO: 18 of the sequence listing, tested in DIO mice; sequence not printed in the text (HXQGTFTSDKSKYLDERAAQDFVQWLMDT; (2)..(2) Xaa is AIB; (10)..(10) Acylated with a C16 fatty acyl group via gamma-Glu-gamma-Glu spacer; (29)..(29) C-terminal amidation) | −29 | – | – | – | – | – | – | – | – |
| CCCCCCCCCCCCCCCC(=O)N[C@@H](CCC(=O)N[C@@H](CCC(=O)NCCCC[C@H](NC(=O)[C@H](CC(=O)O)NC(=O)[C@H](CO)NC(=O)[C@@H](NC(=O)[C@H](Cc1ccccc1)NC(=O)[C@@H](NC(=O)CNC(=O)[C@H](CCC(N)=O)NC(=O)C(C)(C)NC(=O)[C@@H](N)Cc1c[nH]cn1)[C@@H](C)O)[C@@H](C)O)C(=O)N[C@@H](CO)C(=O)N[C@@H](CCCCN)C(=O)N[C@@H](Cc1ccc(O)cc1)C(=O)N[C@@H](CC(C)C)C(=O)N[C@@H](CC(=O)O)C(=O)NC(C)(C)C(=O)N[C@@H](CCCNC(=N)N)C(=O)N[C@@H](C)C(=O)N[C@@H](C)C(=O)N[C@@H](CCC(N)=O)C(=O)N[C@@H](CC(=O)O)C(=O)N[C@@H](Cc1ccccc1)C(=O)N[C@H](C(=O)N[C@@H](CCC(N)=O)C(=O)N[C@@H](Cc1c[nH]c2ccccc12)C(=O)N[C@@H](CC(C)C)C(=O)N[C@@H](CCSC)C(=O)N[C@@H](CC(N)=O)C(=O)N[C@H](C(=O)N[C@@H](CCCCN)C(=O)N[C@@H](CCC(N)=O)C(=O)O)[C@@H](C)O)C(C)C)C(=O)O)C(=O)O [SEQ ID NO: 17] (H-H[Aib]QGTFTSDK([γGlu-γGlu-Palmitoyl])SKYLD[Aib]RAAQDFVQWLMNTKQ-OH; N-terminus assumed) | – | ~28 | ~19 | ~48 | ~48 | ~45 | regained much of the weight that was lost | −25.7%±3.2 | improved glucose tolerance |
| SEQ ID NO: 19: peptide of SEQ ID NO: 19 of the sequence listing, tested in DIO mice; sequence not printed in the text (H[dS]QGTFTSDK([γGlu-Palmitoyl])SKYLDERAAQDFVQWLLDT-NH2; N-terminus assumed; SMILES CCCCCCCCCCCCCCCC(=O)N[C@@H](CCC(=O)NCCCC[C@H](NC(=O)[C@H](CC(=O)O)NC(=O)[C@H](CO)NC(=O)[C@@H](NC(=O)[C@H](Cc1ccccc1)NC(=O)[C@@H](NC(=O)CNC(=O)[C@H](CCC(N)=O)NC(=O)[C@@H](CO)NC(=O)[C@@H](N)Cc1c[nH]cn1)[C@@H](C)O)[C@@H](C)O)C(=O)N[C@@H](CO)C(=O)N[C@@H](CCCCN)C(=O)N[C@@H](Cc1ccc(O)cc1)C(=O)N[C@@H](CC(C)C)C(=O)N[C@@H](CC(=O)O)C(=O)N[C@@H](CCC(=O)O)C(=O)N[C@@H](CCCNC(=N)N)C(=O)N[C@@H](C)C(=O)N[C@@H](C)C(=O)N[C@@H](CCC(N)=O)C(=O)N[C@@H](CC(=O)O)C(=O)N[C@@H](Cc1ccccc1)C(=O)N[C@H](C(=O)N[C@@H](CCC(N)=O)C(=O)N[C@@H](Cc1c[nH]c2ccccc12)C(=O)N[C@@H](CC(C)C)C(=O)N[C@@H](CC(C)C)C(=O)N[C@@H](CC(=O)O)C(=O)N[C@H](C(N)=O)[C@@H](C)O)C(C)C)C(=O)O) | – | – | – | ~40 | ~39 | ~26 | – | – | – |
